What was measured:
H1650 = H1650 cell viability (ATP content); type: cell-based; details: Homo sapiens, NCI-H1650, 72 h, read-out: H1650 IC50(72h)
Description: (§1) 574 H1650 is a human lung cancer derived ATG7-null cell line (49) that can be used to assess effects on targets
(§2) 576 adenocarcinoma; bronchoalveolar carcinoma). Other cells lines used are: H460 (NCI-H460; human lung;
(§3) 577 carcinoma; large cell lung cancer; ATCC: HTB-177); and HCT116 (human colon; colorectal carcinoma;
(§4) 578 ATCC: CCL-247; Lot : 5056139). Each of the cell lines was received from the American Type Culture
(§5) 579 Collection (ATCC) and passaged twice before freezing. Cells were cultured in the presence or absence of
(§6) 580 inhibitors and cell viability was assessed by comparing the ATP content in compound-treated wells with
(§7) 581 that in DMSO-treated wells as previously described (11). […]
(§8) 585 37°C humidified incubator as adherent semi-confluent monolayers in complete Dulbecco’s Modified Eagle
(§9) 586 Media (c-DMEM). DMEM (Gibco™, Thermo Fisher Scientific, Australia) was supplemented with 10%

H460 = H460 cell viability (ATP content); type: cell-based; details: Homo sapiens, NCI-H460, 72 h, read-out: H460 IC50(72h)
Description: as §1, §2, §3, §4, §5, §6, §7, §8, §9

HCT116 = HCT116 cell viability (ATP content); type: cell-based; details: Homo sapiens, HCT-116, 72 h, read-out: HCT116 IC50(72h)
Description: as §1, §2, §3, §4, §5, §6, §7, §8, §9

P. falciparum (3D7) = P. falciparum (3D7) culture growth inhibition, 72 h; type: cell-based, Plasmodium falciparum; details: Plasmodium falciparum, 3D7, 72 h, read-out: Pf3D7 IC50(72h)
Description: (1 picture or pasted object on this page, not shown here)
553 Sigma-Aldrich) for 48-72 h. For drug pulse assays, tightly synchronized parasites (1-1.5% parasitemia,
554 0.2% final hematocrit) were added to the plates and incubated for 3 h. Drugs were removed and the
555 parasitemia assessed in the trophozoite stage of the next cycle.
557 Compounds were tested against a range of drug resistant field isolates and laboratory strains using a
558 modified [3H]-hypoxanthine incorporation assay, as previously reported (46). Field isolates 7G8, Cam3.1,
559 Dd2, K1, TM90C2B and NF54 were obtained from MR4 (www.beiresources.org).
561 Mammalian cell culture experiments
562 The HepG2 (Human hepatocyte carcinoma) cell line was procured from ATCC (American Type
563 Culture Collection, Manassas, USA; HB-8065) and viability assessed using Cell Titer-GLO luminescent
564 cell viability assay reagents (Promega, catalogue number: G7570) (47, 48). For the assay, 2000 cells/well
565 were plated in 384-well plates 24 h prior to the experiment and incubated at 37°C in a CO2 incubator. The
566 medium was removed and cells were treated with fresh medium containing either vehicle (0.5% DMSO)
567 or serially diluted test compounds or doxorubicin (1.3 nM to 25 µM) in a final volume of 50 µl/well and
568 further incubated for 72 h at 37°C in a CO2 incubator.
569 were treated with 5 µl of 1% Triton X-100 (final assay conc. 0.1%). Following incubation, 25 µl of medium
570 was discarded and 25 µl of Cell Titer-GLO reagent was added to each well and the plate was kept on a plate
571 shaker for 15 min at 25°C with shaking at 300 rpm. Luminescence signals were measured in a Spectramax
572 M5 reader (Molecular Devices).
as §1, §2, §3, §4, §5, §6
581 that in DMSO-treated wells as previously described (11).
583 HeLa cells (human cervical adenocarcinoma; genome sequenced (Garvin Institute, Australia) and verified

[1] = tested on: eIF2α phosphorylation in P. falciparum; experiment: Western blot for phosphorylated-eIF2α; type: cell-based, Plasmodium falciparum; details: wildtype P. falciparum cultures
Description: Synchronous ring-stage YRScyt conditional knockdown line and the aptamer-regulatable control
700 the drug plate. Lowest drug treatment and a lethal dose of chloroquine (200 nM) served as reference
Two guide RNAs (gRNA1: […] and gRNA2:
Ring-stage P. falciparum parasites (Dd2 strain) at 10%
Using a modification of a published procedure (14), the
722 cells were labelled with O-propargyl-puromycin (OPP; 4 µM) for 1 h, washed 3x (PBS +3% serum) and
Flow cytometry was performed
730 hematocrit and 5% parasitemia. The RBC pellet was washed 3 x in PBS + cOmplete. Cells were centrifuged
The wash with PBS + cOmplete and
The pellet was resuspended in Bolt LDS sample
The samples were vortexed for 10 min at room temperature.
Secondary antibodies: goat
740 anti-rabbit IgG-peroxidase (Sigma-Aldrich-A0545; 1:20 000), goat anti-mouse IgG-peroxidase (Chemicon-
Chemiluminescence was detected using the Bio-Rad ChemiDocTM MP imaging
For the human mature YRS construct,
The YRS sequences were codon optimized for E. coli,
The vector was transformed into
PfYRS, PfYRSS234C and HsYRS were induced
Cell pellets were resuspended in 40 mL lysis
Cells were lysed by sonication (Microtip, QSonica)
The supernatant was applied to a 5
757 mL HisTrap HP column (GE Healthcare) and washed with 50 mL binding buffer containing 50 mM Tris-
His-YRS was eluted using a 0-500 mM
The eluted His-YRS was dialyzed overnight at 4°C
760 against 50 mM Tris-HCl, pH 8, 500 mM NaCl, 30 mM imidazole, 1 mM TCEP with the addition of His-
Cleaved His tags from His-YRS and TEV
YRS was further purified by gel filtration using a HiLoad 16/600 Superdex 200 column (GE

PfYRS [2] = target: T1, PfYRS (Plasmodium falciparum, UniProt Q8IAR7); experiment: Tyrosine acylation of cognate tRNATyr by PfYRS; type: biochemical
T1 sequence (Q8IAR7 entry or part of it): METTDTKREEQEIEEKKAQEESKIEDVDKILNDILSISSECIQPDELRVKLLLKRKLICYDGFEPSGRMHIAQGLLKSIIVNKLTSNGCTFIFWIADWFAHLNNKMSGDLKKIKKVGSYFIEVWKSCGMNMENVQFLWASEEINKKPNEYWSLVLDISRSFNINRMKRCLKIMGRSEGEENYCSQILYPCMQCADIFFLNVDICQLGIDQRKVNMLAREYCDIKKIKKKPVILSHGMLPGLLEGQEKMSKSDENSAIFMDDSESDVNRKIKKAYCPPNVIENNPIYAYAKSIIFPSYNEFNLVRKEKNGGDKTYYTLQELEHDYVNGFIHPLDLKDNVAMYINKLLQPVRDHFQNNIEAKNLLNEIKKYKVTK

PfYRSS234C = PfYRSS234C (Plasmodium falciparum, UniProt Q8IAR7, S234C); experiment: biochemical; type: binding
Chain of PfYRSS234C (Q8IAR7 whole entry S234C): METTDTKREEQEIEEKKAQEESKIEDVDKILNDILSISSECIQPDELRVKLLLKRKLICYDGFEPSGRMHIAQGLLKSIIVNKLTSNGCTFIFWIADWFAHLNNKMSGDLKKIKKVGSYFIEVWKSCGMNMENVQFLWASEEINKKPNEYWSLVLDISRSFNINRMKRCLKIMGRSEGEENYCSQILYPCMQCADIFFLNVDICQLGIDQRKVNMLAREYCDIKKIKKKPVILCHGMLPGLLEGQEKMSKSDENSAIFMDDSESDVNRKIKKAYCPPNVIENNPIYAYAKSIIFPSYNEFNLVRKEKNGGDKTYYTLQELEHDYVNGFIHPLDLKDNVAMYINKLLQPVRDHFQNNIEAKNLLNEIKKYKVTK
Description: (§10) 804 An intron was detected in the PftRNATyr sequence, that was not indicated in PlasmoDB. A T7 RNA
(§11) 805 polymerase promoter sequence was added to the 5’ end of the DNA sequence of P. falciparum and H.
(§12) 806 sapiens tRNATyr. This DNA template and its complementary strand were custom-synthesized by Sigma-
(§13) 807 Aldrich. Two oligonucleotides were annealed at 95°C for 5 min and the double-stranded DNA template
(§14) 808 was used for in vitro transcription. The transcription reaction was incubated at 37°C overnight. The reaction
(§15) 809 mixture consists of template DNA, T7 RNA polymerase and NTP mix as per manufacturer's instructions
(§16) 810 (HiScribe™ T7 Quick High Yield RNA Synthesis Kit, NEB). On the following day, the reaction mixture
(§17) 811 was treated with DNase I at 37°C for 15 min. tRNA was purified using RNA clean-up spin columns
(§18) 812 (Monarch® RNA Cleanup Kit, NEB) to remove contaminants from the transcription reaction.
(§19) 814 Differential scanning fluorimetry (DSF)
(§20) 815 PfYRS and HsYRS at 0.1 mg/ml were incubated with various substrates at 37°C for 1-3 h. PfYRS was
(§21) 816 assayed in 25 mM Tris, pH 8, 150 mM NaCl, 5 mM MgCl2 and 1 mM TCEP. HsYRS was assayed in 50
(§22) 817 mM Tris, pH 7.5, 150 mM NaCl, 50 mM KCl, 5 mM MgCl2 and 1 mM TCEP. SYPRO Orange (Sigma-
(§23) 818 Aldrich; 5,000X concentrate in DMSO) was added to the reaction mixture at a final concentration of 2.5X.
(§24) 819 25 µL of the sample was added into each well of a 96-well qPCR plate (Applied Biosystems). The plate
(§25) 820 was sealed and analysed using StepOnePlus Real-Time PCR system (Applied Biosystems). The samples
(§26) 821 were heated from 20°C to 90°C with a 1% continuous gradient. The thermal unfolding curve was plotted
(§27) 822 as the first derivative curve of the raw fluorescence values. The melting temperature (Tm), defined as the
(§28) 823 peak of the first derivative curve, was used to assess the thermal stability of protein-ligand complexes. KD
(§29) 824 values were calculated from DTm using the equation: ln(KD/[L]) = -131.5 x (∆Tm/Tm,apo) - 1.9, where [L]
(§30) 825 is the concentration of ligand and T is the temperature in Kelvin (40). […]

PfYRS [3] = target: T1, PfYRS; experiment: biochemical; type: binding
Description: as §10, §11, §12, §13, §14, §15, §16, §17, §18, §19, §20, §21, §22, §23, §24, §25, §26, §27, §28, §29, §30

HsYRS = target: T2, HsYRS (Homo sapiens, UniProt P54577); experiment: Tyrosine acylation of cognate tRNATyr by HsYRS; type: biochemical; details: YRS 0.25 μM, ATP 10 μM, 37°C 1 h
T2 construct: made in house; host or cells: E. coli BL21(DE3), pET-11a
T2 sequence (P54577 1-364): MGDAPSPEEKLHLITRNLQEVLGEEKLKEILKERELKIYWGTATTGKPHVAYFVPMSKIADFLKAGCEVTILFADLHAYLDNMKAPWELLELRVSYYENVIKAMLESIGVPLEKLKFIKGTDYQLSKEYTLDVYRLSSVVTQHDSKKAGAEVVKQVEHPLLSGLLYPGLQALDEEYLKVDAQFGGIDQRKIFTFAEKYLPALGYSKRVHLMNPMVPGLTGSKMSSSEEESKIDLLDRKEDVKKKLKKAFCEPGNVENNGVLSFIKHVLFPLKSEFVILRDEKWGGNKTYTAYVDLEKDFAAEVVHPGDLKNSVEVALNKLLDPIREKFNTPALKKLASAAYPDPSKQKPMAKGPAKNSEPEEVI

Compound | IC50 (H1650) [nM] | IC50 (H460) [nM] | IC50 (HCT116) [nM] | IC50 (P. falciparum (3D7)) [nM] | eIF2α phosphorylation [1] | IC50 (PfYRS [2]) [nM] | Kd (PfYRSS234C) [nM] | Tm (PfYRSS234C; PfYRSS234C 2.3 μM, after incubation at 37°C for 3 h) [oC] | Kd (PfYRS [3]) [nM] | Tm (PfYRS [3]; PfYRS 2.3 μM, after incubation at 37°C for 3 h) [oC] | DTm (PfYRS [3]; PfYRS, versus apo) [oC] | IC50 (HsYRS) [nM]
Nc1ncnc2c1ncn2[C@@H]1O[C@H](COS(N)(=O)=O)[C@@H](O)[C@H]1O [AMS, adenosine 5′-sulfamate, reference compound] | 140 | 25 ± 7 | 26 | 1.8 | triggers eIF2α phosphorylation | – | – | – | – | – | – | –
Nc1ncnc2c1c(OC(F)F)nn2C1OC(COS(=O)(=O)NC(=O)C(N)Cc2ccc(O)cc2)C(O)C1O (stereo not drawn) [ML901-Tyr] | – | – | – | – | – | 1600 | 3.9 | 59.7 ± 0.3 | 0.7 | 65.1 ± 0.1 | 14.9 | 23000

Source: article PMC7613620, “Reaction hijacking of tyrosine tRNA synthetase as a whole-of-life-cycle antimalarial strategy” (Science (New York, N.Y.), 2022)
